# ChEMBL document CHEMBL4507317, “Data for DCP probe BAY-899” (2021)
# How the values were obtained:
# [1] = target: Follicle-stimulating hormone receptor (Homo sapiens, UniProt P23945); test: Cell-based assay (FSH Antagonism)
# [2] = system: Tyrosine-protein kinase ABL1 (Homo sapiens), P00519 [Y253F]; conditions: Compound concentration 1000.0 nM
# [3] = target: Tyrosine-protein kinase ABL1 (Homo sapiens) (UniProt P00519); conditions: Compound concentration 1000.0 nM
# [4] = target: Activin receptor type-1-like (Homo sapiens) (UniProt P37023); conditions: Compound concentration 1000.0 nM
# [5] = target: ALK tyrosine kinase receptor (Homo sapiens) (UniProt Q9UM73); conditions: Compound concentration 1000.0 nM
# [6] = target: 5'-AMP-activated protein kinase catalytic subunit alpha-1 (Homo sapiens) (UniProt Q13131); conditions: Compound concentration 1000.0 nM
# [7] = target: Aurora kinase A (Homo sapiens) (UniProt O14965); conditions: Compound concentration 1000.0 nM
# [8] = target: Tyrosine-protein kinase Blk (Homo sapiens) (UniProt P51451); conditions: Compound concentration 1000.0 nM
# Tyrosine-protein kinase Blk (Homo sapiens), sequence (P51451 2-505 limits assumed): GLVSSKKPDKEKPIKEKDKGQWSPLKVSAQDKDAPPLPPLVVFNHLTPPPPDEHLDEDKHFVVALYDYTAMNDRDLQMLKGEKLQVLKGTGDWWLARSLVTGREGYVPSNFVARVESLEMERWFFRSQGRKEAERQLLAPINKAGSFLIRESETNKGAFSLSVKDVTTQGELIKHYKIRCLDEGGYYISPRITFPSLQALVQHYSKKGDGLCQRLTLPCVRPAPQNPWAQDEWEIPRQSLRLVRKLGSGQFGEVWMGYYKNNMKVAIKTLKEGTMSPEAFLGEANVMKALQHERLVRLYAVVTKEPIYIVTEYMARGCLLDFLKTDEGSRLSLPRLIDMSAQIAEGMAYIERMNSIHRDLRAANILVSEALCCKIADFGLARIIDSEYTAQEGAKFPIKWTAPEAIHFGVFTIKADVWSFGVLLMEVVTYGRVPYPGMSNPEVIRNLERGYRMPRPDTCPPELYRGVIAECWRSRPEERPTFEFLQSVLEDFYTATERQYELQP
# [9] = target: Bone morphogenetic protein receptor type-2 (Homo sapiens) (UniProt Q13873); conditions: Compound concentration 1000.0 nM
# [10] = target: Mitotic checkpoint serine/threonine-protein kinase BUB1 (Homo sapiens) (UniProt O43683); conditions: Compound concentration 1000.0 nM
# Mitotic checkpoint serine/threonine-protein kinase BUB1 (Homo sapiens), sequence (O43683 whole entry, looked up): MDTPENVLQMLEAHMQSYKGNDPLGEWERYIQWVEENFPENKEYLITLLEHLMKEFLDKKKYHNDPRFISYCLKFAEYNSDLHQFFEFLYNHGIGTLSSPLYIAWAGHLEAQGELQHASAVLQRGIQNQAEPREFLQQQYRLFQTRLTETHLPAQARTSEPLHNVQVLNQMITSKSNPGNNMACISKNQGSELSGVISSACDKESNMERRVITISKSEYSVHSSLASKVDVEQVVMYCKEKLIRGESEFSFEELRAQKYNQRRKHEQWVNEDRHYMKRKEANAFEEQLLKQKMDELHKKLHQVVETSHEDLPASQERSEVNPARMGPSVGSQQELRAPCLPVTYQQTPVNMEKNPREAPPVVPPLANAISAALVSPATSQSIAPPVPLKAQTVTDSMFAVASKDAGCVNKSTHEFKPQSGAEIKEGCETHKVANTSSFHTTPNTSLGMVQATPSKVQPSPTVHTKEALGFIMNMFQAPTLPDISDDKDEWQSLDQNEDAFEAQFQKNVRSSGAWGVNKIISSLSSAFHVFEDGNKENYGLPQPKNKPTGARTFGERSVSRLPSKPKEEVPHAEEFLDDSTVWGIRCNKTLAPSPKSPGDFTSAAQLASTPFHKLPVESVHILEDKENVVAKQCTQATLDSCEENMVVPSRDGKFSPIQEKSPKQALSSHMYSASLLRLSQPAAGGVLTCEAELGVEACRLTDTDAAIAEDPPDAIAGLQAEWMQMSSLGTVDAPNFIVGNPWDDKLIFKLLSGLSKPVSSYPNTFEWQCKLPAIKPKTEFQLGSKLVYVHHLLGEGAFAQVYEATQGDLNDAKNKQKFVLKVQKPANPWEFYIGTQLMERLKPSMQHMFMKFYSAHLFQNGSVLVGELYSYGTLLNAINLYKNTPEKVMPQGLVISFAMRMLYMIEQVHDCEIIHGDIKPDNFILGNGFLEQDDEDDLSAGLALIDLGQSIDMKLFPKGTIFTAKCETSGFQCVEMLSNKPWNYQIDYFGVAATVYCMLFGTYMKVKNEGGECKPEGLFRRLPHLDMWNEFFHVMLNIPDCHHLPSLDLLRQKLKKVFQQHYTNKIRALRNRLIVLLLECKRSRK
# [11] = target: Calcium/calmodulin-dependent protein kinase type 1G (Homo sapiens) (UniProt Q96NX5); conditions: Compound concentration 1000.0 nM
# [12] = target: Cyclin-dependent kinase 4 (Homo sapiens) (UniProt P11802); conditions: Compound concentration 1000.0 nM
# [13] = target: Casein kinase I isoform alpha (Homo sapiens) (UniProt P48729); conditions: Compound concentration 1000.0 nM
# [14] = system: Epidermal growth factor receptor (Homo sapiens), P00533 [UNDEFINED MUTATION]; conditions: Compound concentration 1000.0 nM
# [15] = target: Ephrin type-A receptor 6 (Homo sapiens) (UniProt Q9UF33); conditions: Compound concentration 1000.0 nM
# [16] = target: Tyrosine-protein kinase Fgr (Homo sapiens) (UniProt P09769); conditions: Compound concentration 1000.0 nM
# [17] = system: Receptor-type tyrosine-protein kinase FLT3 (Homo sapiens), P36888 [UNDEFINED MUTATION]; conditions: Compound concentration 1000.0 nM
# [18] = system: Receptor-type tyrosine-protein kinase FLT3 (Homo sapiens), P36888 [N841I]; conditions: Compound concentration 1000.0 nM
# [19] = target: Serine/threonine-protein kinase ICK (Homo sapiens) (UniProt Q9UPZ9); conditions: Compound concentration 1000.0 nM
# [20] = target: Serine/threonine-protein kinase LATS2 (Homo sapiens) (UniProt Q9NRM7); conditions: Compound concentration 1000.0 nM
# [21] = target: Serine/threonine-protein kinase 10 (Homo sapiens) (UniProt O94804); conditions: Compound concentration 1000.0 nM
# [22] = target: Mitogen-activated protein kinase kinase kinase kinase 4 (Homo sapiens) (UniProt O95819); conditions: Compound concentration 1000.0 nM
# [23] = target: MAP kinase-activated protein kinase 5 (Homo sapiens) (UniProt Q8IW41); conditions: Compound concentration 1000.0 nM
# [24] = target: Serine/threonine-protein kinase 4 (Homo sapiens) (UniProt Q13043); conditions: Compound concentration 1000.0 nM
# [25] = target: Serine/threonine-protein kinase 24 (Homo sapiens) (UniProt Q9Y6E0); conditions: Compound concentration 1000.0 nM
# [26] = target: Serine/threonine-protein kinase Nek5 (Homo sapiens) (UniProt Q6P3R8); conditions: Compound concentration 1000.0 nM
# [27] = target: Serine/threonine-protein kinase PAK 4 (Homo sapiens) (UniProt O96013); conditions: Compound concentration 1000.0 nM
# [28] = target: Platelet-derived growth factor receptor alpha (Homo sapiens) (UniProt P16234); conditions: Compound concentration 1000.0 nM
# [29] = system: Phosphatidylinositol 4,5-bisphosphate 3-kinase catalytic subunit alpha isoform (Homo sapiens), P42336 [Q546K]; conditions: Compound concentration 1000.0 nM
# Phosphatidylinositol 4,5-bisphosphate 3-kinase catalytic subunit alpha isoform (Homo sapiens), P42336 [Q546K], sequence (P42336 whole entry Q546K, canonical isoform): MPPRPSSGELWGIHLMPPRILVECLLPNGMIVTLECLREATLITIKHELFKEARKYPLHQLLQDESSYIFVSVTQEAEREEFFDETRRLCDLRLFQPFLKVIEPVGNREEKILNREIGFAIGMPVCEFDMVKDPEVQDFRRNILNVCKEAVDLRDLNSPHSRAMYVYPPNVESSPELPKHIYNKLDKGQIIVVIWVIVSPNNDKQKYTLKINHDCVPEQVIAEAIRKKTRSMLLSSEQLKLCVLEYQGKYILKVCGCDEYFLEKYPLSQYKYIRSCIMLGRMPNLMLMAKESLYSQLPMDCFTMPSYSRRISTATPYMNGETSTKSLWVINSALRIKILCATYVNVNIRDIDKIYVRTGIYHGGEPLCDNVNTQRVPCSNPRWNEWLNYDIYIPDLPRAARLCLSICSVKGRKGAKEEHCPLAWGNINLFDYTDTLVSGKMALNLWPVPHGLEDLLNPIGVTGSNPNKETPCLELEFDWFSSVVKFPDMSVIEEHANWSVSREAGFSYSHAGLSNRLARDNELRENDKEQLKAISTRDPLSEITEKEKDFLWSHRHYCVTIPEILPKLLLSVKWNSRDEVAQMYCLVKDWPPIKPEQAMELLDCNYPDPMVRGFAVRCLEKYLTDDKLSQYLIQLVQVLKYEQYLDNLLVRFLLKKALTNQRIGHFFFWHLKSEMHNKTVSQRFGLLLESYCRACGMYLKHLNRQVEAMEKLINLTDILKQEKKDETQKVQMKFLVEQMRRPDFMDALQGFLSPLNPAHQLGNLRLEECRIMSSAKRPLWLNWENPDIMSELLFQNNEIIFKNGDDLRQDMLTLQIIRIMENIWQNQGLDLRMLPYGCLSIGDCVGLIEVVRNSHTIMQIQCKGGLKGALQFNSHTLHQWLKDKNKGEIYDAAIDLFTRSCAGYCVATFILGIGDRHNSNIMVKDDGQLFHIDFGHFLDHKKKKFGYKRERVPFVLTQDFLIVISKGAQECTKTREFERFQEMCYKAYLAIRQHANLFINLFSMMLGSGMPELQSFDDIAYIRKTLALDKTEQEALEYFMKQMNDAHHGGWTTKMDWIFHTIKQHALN
# [30] = target: Phosphatidylinositol 5-phosphate 4-kinase type-2 gamma (Homo sapiens) (UniProt Q8TBX8); conditions: Compound concentration 1000.0 nM
# [31] = target: Serine/threonine-protein kinase N1 (Homo sapiens) (UniProt Q16512); conditions: Compound concentration 1000.0 nM
# [32] = target: Serine/threonine-protein kinase PknB (Mycobacterium tuberculosis) (UniProt P9WI81); conditions: Compound concentration 1000.0 nM
# [33] = target: Protein kinase C iota type (Homo sapiens) (UniProt P41743); conditions: Compound concentration 1000.0 nM
# [34] = target: Serine/threonine-protein kinase D3 (Homo sapiens) (UniProt O94806); conditions: Compound concentration 1000.0 nM
# [35] = target: Receptor-interacting serine/threonine-protein kinase 2 (Homo sapiens) (UniProt O43353); conditions: Compound concentration 1000.0 nM
# [36] = target: Serine/threonine-protein kinase SBK1 (Homo sapiens) (UniProt Q52WX2); conditions: Compound concentration 1000.0 nM
# [37] = target: Serine/threonine-protein kinase SIK1 (Homo sapiens) (UniProt P57059); conditions: Compound concentration 1000.0 nM
# Serine/threonine-protein kinase SIK1 (Homo sapiens), sequence (P57059 whole entry): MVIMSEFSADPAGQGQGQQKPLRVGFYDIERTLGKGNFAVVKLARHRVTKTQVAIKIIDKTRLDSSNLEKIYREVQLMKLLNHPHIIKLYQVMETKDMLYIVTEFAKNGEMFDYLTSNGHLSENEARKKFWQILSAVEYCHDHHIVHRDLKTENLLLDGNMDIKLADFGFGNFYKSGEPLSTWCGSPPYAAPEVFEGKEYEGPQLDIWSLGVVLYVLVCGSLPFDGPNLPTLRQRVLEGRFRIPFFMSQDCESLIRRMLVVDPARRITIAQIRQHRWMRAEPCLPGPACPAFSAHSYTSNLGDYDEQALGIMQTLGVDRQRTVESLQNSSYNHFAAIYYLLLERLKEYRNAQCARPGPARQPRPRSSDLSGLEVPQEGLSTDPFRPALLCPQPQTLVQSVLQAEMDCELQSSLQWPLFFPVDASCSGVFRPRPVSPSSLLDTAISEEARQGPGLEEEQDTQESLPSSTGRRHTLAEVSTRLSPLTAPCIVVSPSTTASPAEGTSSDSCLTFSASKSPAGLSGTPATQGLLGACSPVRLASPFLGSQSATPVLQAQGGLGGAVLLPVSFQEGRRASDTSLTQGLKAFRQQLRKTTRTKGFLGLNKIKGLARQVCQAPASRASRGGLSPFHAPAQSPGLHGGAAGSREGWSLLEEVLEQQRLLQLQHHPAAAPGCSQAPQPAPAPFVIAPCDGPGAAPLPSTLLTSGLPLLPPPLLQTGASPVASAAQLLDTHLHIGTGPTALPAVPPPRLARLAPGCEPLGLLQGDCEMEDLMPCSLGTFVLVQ
# [38] = target: Serine/threonine-protein kinase 36 (Homo sapiens) (UniProt Q9NRP7); conditions: Compound concentration 1000.0 nM
# [39] = target: Angiopoietin-1 receptor (Homo sapiens) (UniProt Q02763); conditions: Compound concentration 1000.0 nM
# [40] = target: Serine/threonine-protein kinase VRK2 (Homo sapiens) (UniProt Q86Y07); conditions: Compound concentration 1000.0 nM
# [41] = target: Wee1-like protein kinase (Homo sapiens) (UniProt P30291); conditions: Compound concentration 1000.0 nM
# Wee1-like protein kinase (Homo sapiens), sequence (P30291 whole entry, looked up): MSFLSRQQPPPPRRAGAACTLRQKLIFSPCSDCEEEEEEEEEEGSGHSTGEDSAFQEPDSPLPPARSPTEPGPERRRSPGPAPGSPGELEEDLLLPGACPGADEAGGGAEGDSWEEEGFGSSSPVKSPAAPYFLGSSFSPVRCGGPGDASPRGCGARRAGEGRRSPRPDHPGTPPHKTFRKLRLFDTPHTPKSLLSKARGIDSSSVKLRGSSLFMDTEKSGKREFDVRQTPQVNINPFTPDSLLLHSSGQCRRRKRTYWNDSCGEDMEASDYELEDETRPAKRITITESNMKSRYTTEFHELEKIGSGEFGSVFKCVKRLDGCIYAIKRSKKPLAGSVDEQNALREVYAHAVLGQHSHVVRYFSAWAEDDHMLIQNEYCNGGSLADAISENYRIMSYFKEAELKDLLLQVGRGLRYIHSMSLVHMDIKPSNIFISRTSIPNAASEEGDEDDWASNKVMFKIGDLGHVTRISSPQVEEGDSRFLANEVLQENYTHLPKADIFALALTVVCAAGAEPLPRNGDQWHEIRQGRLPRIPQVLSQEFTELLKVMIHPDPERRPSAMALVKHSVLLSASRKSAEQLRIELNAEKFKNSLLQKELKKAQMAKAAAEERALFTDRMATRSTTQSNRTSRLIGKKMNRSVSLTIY
# [42] = target: 5-hydroxytryptamine receptor 2C (Homo sapiens) (UniProt P28335); conditions: Compound concentration 10.0 uM
# [43] = target: 5-hydroxytryptamine receptor 6 (Homo sapiens) (UniProt P50406); conditions: Compound concentration 10.0 uM
# [44] = target: Alpha-1B adrenergic receptor (Homo sapiens) (UniProt P35368); conditions: Compound concentration 10.0 uM
# Alpha-1B adrenergic receptor (Homo sapiens), sequence (P35368 whole entry): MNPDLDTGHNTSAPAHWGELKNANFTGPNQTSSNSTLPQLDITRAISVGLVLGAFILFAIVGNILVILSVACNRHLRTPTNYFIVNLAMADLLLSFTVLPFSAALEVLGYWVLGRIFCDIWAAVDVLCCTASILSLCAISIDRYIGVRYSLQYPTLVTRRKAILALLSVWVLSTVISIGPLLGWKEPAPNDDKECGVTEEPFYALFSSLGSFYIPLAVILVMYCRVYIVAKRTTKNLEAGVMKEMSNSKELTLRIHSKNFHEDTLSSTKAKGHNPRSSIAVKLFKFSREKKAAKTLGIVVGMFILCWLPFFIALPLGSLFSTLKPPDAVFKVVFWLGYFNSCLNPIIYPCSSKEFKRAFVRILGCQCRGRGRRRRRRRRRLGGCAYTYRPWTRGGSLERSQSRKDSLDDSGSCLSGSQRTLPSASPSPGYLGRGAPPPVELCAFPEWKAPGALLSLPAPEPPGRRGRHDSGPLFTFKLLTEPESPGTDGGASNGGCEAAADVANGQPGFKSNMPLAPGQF
# [45] = target: Muscarinic acetylcholine receptor M2 (Homo sapiens) (UniProt P08172); conditions: Compound concentration 10.0 uM
# Muscarinic acetylcholine receptor M2 (Homo sapiens), sequence (P08172 whole entry): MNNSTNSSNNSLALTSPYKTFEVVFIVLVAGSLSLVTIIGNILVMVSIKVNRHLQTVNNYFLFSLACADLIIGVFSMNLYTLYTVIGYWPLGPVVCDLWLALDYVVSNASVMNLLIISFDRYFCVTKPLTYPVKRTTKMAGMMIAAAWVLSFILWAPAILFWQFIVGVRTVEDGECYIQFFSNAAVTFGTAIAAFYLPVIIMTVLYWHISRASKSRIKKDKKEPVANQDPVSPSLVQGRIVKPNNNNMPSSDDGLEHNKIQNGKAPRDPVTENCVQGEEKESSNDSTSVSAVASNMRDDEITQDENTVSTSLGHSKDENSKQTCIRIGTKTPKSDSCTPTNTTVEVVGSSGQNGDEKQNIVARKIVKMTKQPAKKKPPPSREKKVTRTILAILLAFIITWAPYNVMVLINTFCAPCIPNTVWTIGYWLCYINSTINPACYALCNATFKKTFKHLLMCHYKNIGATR
smiles,measurement,setting,value
O=C(Nc1ccc(Oc2ccc(F)cc2)cc1)N1CCc2ncccc2[C@H]1c1ccc(F)cc1 [BAY-897],IC50,[1],> 16 µM (not active)
same,residual activity,[2],82%
same,residual activity,[3],100%
same,residual activity,[4],81%
same,residual activity,[5],100%
same,residual activity,[6],96%
same,residual activity,[7],100%
same,residual activity,[8],90%
same,residual activity,[9],96%
same,residual activity,[10],98%
same,residual activity,[11],100%
same,residual activity,[12],100%
same,residual activity,[13],97%
same,residual activity,[14],100%
same,residual activity,[15],100%
same,residual activity,[16],100%
same,residual activity,[17],99%
same,residual activity,[18],93%
same,residual activity,[19],76%
same,residual activity,[20],100%
same,residual activity,[21],100%
same,residual activity,[22],100%
same,residual activity,[23],75%
same,residual activity,[24],99%
same,residual activity,[25],93%
same,residual activity,[26],96%
same,residual activity,[27],94%
same,residual activity,[28],95%
same,residual activity,[29],75%
same,residual activity,[30],94%
same,residual activity,[31],100%
same,residual activity,[32],86%
same,residual activity,[33],100%
same,residual activity,[34],98%
same,residual activity,[35],96%
same,residual activity,[36],89%
same,residual activity,[37],99%
same,residual activity,[38],89%
same,residual activity,[39],100%
same,residual activity,[40],97%
same,residual activity,[41],100%
same,inhibition,[42],68.4%
same,inhibition,[43],16.9%
same,inhibition,[44],12.2%
same,inhibition,[45],-1.78%
O=C(Nc1cnc(Oc2ccc(F)cc2)nc1)N1CCc2ncccc2[C@@H]1c1ccc(F)cc1 [BAY-899],IC50,[1],> 16 µM (not active)
same,residual activity,[2],100%
same,residual activity,[3],94%
same,residual activity,[4],99%
same,residual activity,[5],99%
same,residual activity,[6],88%
same,residual activity,[7],100%
same,residual activity,[8],80%
same,residual activity,[9],88%
same,residual activity,[10],92%
same,residual activity,[11],97%
same,residual activity,[12],100%
same,residual activity,[13],85%
same,residual activity,[14],100%
same,residual activity,[15],100%
same,residual activity,[16],100%
same,residual activity,[17],92%
same,residual activity,[18],88%
same,residual activity,[19],92%
same,residual activity,[20],99%
same,residual activity,[21],94%
same,residual activity,[22],86%
same,residual activity,[23],91%
same,residual activity,[24],100%
same,residual activity,[25],77%
same,residual activity,[26],90%
same,residual activity,[27],82%
same,residual activity,[28],93%
same,residual activity,[29],95%
same,residual activity,[30],86%
same,residual activity,[31],95%
same,residual activity,[32],90%
same,residual activity,[33],98%
same,residual activity,[34],84%
same,residual activity,[35],93%
same,residual activity,[36],100%
same,residual activity,[37],88%
same,residual activity,[38],91%
same,residual activity,[39],93%
same,residual activity,[40],100%
same,residual activity,[41],85%
same,inhibition,[42],18.3%
same,inhibition,[43],-3.59%
same,inhibition,[44],-4.4%
same,inhibition,[45],-5.1%
